“And” between values parts separate entries of the source, which are not always exact repeats. Equal entries are not always repeated.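 Where inhibition never reached the appropriate level, the endpoint shown equals the highest concentration tested. Otherwise, values were interpolated linearly from a five-concentration, 48-hour dose response in 96-well plates. GI50 is the concentration that inhibits growth by half. TGI marks complete inhibition of growth.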

Among the data in PubChem BioAssay (NCI) are GI50 and TGI values, retold here.

Test systems include UACC-257 melanoma; OVCAR-8 ovarian; HCT-116 colon; TK-10 renal; NCI-H460 lung; SF-295 CNS; MDA-MB-231 breast; MALME-3M melanoma; CCRF-CEM leukemia; U251 CNS.
What all share (assay): NCI-60 cell line screen, 48 h

Turning to `C=C(C)C1CCC2(C(=O)O)CCC3(C)C(CCC4C5(C)CCC(OC(=O)NCc6ccccc6)C(C)(C)C5CCC43C)C12` (centres undefined), the GI50 in the assay on UACC-257 melanoma was 2.3 µM; with OVCAR-8 ovarian, 7.29 µM; in the assay on HCT-116 colon, 2.24 µM; in the assay with TK-10 renal it was 3.76 µM; in the assay on NCI-H460 lung, 3.14 µM; in the assay with SF-295 CNS it was 3.15 µM. The GI50 with MDA-MB-231 breast was 5.69 µM; with MALME-3M melanoma, 5.5 µM; with CCRF-CEM leukemia, 2.36 µM; in the assay on U251 CNS, 3.07 µM. In addition, the TGI with UACC-257 melanoma is greater than 100 µM; in the assay on OVCAR-8 ovarian it was greater than 100 µM; with HCT-116 colon, 19.3 µM; in the assay with TK-10 renal it was 58.4 µM; in the assay on NCI-H460 lung it was 16.5 µM; in the assay with SF-295 CNS it was greater than 100 µM. Also, the TGI in the assay with MDA-MB-231 breast is 54.3 µM; in the assay on MALME-3M melanoma, 54.1 µM; in the assay with CCRF-CEM leukemia, greater than 100 µM; with U251 CNS, greater than 100 µM.

`CO[C@H]1C=C[C@@]23c4cc5c(cc4CO[C@]2(O)CN(C)[C@H]3C1)OCO5`: the TGI in the assay with UACC-257 melanoma, with OVCAR-8 ovarian, in the assay on HCT-116 colon, in the assay with TK-10 renal, in the assay on NCI-H460 lung and in the assay with SF-295 CNS was greater than 100 µM in each case. Moreover, the TGI in the assay with MDA-MB-231 breast, in the assay on MALME-3M melanoma, in the assay on CCRF-CEM leukemia and in the assay with U251 CNS was greater than 100 µM throughout.

For `CSc1nc2cc(S(=O)(=O)N3CCCCC3)ccc2s1`, the TGI in the assay with UACC-257 melanoma, in the assay on OVCAR-8 ovarian, in the assay with HCT-116 colon, with TK-10 renal, in the assay with NCI-H460 lung and in the assay with SF-295 CNS was greater than 100 µM throughout. Further, the TGI with MDA-MB-231 breast, in the assay with MALME-3M melanoma, in the assay on CCRF-CEM leukemia and in the assay with U251 CNS was greater than 100 µM each time.

In the case of `O=C(O)[C@@H]1CCCCN1Cc1cc2cc3c(cc2c2cc(OCc4ccccc4)ccc12)OCO3`, the GI50 in the assay on UACC-257 melanoma is 3.4 µM; with OVCAR-8 ovarian it was 6.62 µM; in the assay with HCT-116 colon, 17.4 µM; with TK-10 renal, 3.36 µM; with NCI-H460 lung it was 1.49 µM; with SF-295 CNS, 1.95 µM. Moreover, the GI50 with MDA-MB-231 breast is 1.9 µM; in the assay with MALME-3M melanoma, 2.8 µM; with CCRF-CEM leukemia it was 14.9 µM; in the assay on U251 CNS, 3.8 µM. In addition, the TGI was 12 µM with UACC-257 melanoma; 29 µM in the assay on OVCAR-8 ovarian; 31.1 µM with HCT-116 colon; greater than 100 µM in the assay on TK-10 renal; 3.39 µM in the assay on NCI-H460 lung; 8.3 µM with SF-295 CNS. Moreover, the TGI with MDA-MB-231 breast was 6.21 µM; with MALME-3M melanoma, 9.41 µM; in the assay on CCRF-CEM leukemia, greater than 100 µM; in the assay with U251 CNS, 15.2 µM.

For `CCCCCN(CCCCC)CC(O)c1ccc(Cl)c2ccccc12` (centres undefined), the GI50 is 18.8 µM in the assay on UACC-257 melanoma; 16.6 µM in the assay with OVCAR-8 ovarian; 2.13 µM in the assay on HCT-116 colon; 15.5 µM in the assay on TK-10 renal; 3.72 µM in the assay on NCI-H460 lung; 3.99 µM in the assay with SF-295 CNS. In addition, the GI50 was 10.8 µM in the assay on MDA-MB-231 breast, 15.4 µM in the assay on MALME-3M melanoma, 10.5 µM in the assay with CCRF-CEM leukemia and 12.3 µM in the assay with U251 CNS. Besides, the TGI in the assay with UACC-257 melanoma stood at 38.7 µM; in the assay with OVCAR-8 ovarian it was 36.6 µM; in the assay with HCT-116 colon, 13.1 µM; with TK-10 renal, 33.9 µM; with NCI-H460 lung, 19.1 µM; in the assay on SF-295 CNS, 26.3 µM. In addition, the TGI with MDA-MB-231 breast was determined as 26.4 µM; in the assay on MALME-3M melanoma, 32 µM; with CCRF-CEM leukemia it was 33.1 µM; in the assay with U251 CNS, 28.6 µM.

With `O=C1OC(c2ccco2)=N/C1=C\c1cccc([N+](=O)[O-])c1`, the TGI with UACC-257 melanoma, in the assay with OVCAR-8 ovarian, in the assay with HCT-116 colon, in the assay with TK-10 renal, in the assay on NCI-H460 lung and in the assay on SF-295 CNS was greater than 100 µM each time. In addition, the TGI in the assay on MDA-MB-231 breast, in the assay with MALME-3M melanoma, in the assay on CCRF-CEM leukemia and in the assay with U251 CNS was greater than 100 µM in each case.

For the compound `Cc1ccc2c(c1)CN(C(=O)CCC(=O)OCc1ccccc1)c1ccc(C)cc1CN2C(=O)CCC(=O)OCc1ccccc1`, the TGI with UACC-257 melanoma, in the assay with OVCAR-8 ovarian, with HCT-116 colon, with TK-10 renal, in the assay with NCI-H460 lung and in the assay on SF-295 CNS was greater than 100 µM each time. For the same compound, the TGI in the assay with MDA-MB-231 breast, with MALME-3M melanoma, in the assay on CCRF-CEM leukemia and in the assay with U251 CNS was greater than 100 µM throughout.

In the case of `O=C(/C=C\n1cnc(-c2cc(C(F)(F)F)cc(C(F)(F)F)c2)n1)NNc1cnccn1`, the GI50 was 0.188 µM in the assay with UACC-257 melanoma; 0.0769 µM with OVCAR-8 ovarian; 0.0821 µM in the assay on HCT-116 colon; 0.466 µM with TK-10 renal; 0.037 µM in the assay on NCI-H460 lung; 0.0534 µM in the assay on SF-295 CNS. Also, the GI50 is 0.0577 µM with MDA-MB-231 breast, 0.135 µM in the assay on MALME-3M melanoma, 0.106 µM with CCRF-CEM leukemia and 0.0511 µM in the assay on U251 CNS. For the same compound, the TGI in the assay on UACC-257 melanoma was found to be 16.6 µM; in the assay with OVCAR-8 ovarian, 36.5 µM; in the assay on HCT-116 colon, 12.4 µM; in the assay with TK-10 renal, 16.5 µM; in the assay on NCI-H460 lung it was 3.14 µM; with SF-295 CNS, 11.2 µM. The TGI in the assay with MDA-MB-231 breast is 14.8 µM; with MALME-3M melanoma it was 10.5 µM; in the assay on CCRF-CEM leukemia, greater than 100 µM; in the assay on U251 CNS, 12.4 µM.

Turning to `CCCCN1CSC(=S)N(Cc2ccccc2)C1`, the TGI in the assay with UACC-257 melanoma was 60.2 µM; in the assay on OVCAR-8 ovarian it was greater than 100 µM; with HCT-116 colon, greater than 100 µM; in the assay with TK-10 renal it was greater than 100 µM; with NCI-H460 lung, greater than 94.3 µM; in the assay on SF-295 CNS, greater than 100 µM. Besides, the TGI is greater than 100 µM in the assay with MDA-MB-231 breast, greater than 93.5 µM in the assay with MALME-3M melanoma, 32.9 µM in the assay on CCRF-CEM leukemia and greater than 100 µM in the assay on U251 CNS.

As to `CON(C)C(=O)N1N=C(c2cc(F)ccc2F)SC1(CCCN)c1ccccc1` (centres undefined), the TGI with UACC-257 melanoma is 21.7 µM and 22.3 µM; with OVCAR-8 ovarian, 18.9 µM and 19.8 µM; in the assay on HCT-116 colon it was 16.1 µM and 15.2 µM; in the assay on TK-10 renal it was 18.8 µM and 17.7 µM; in the assay with NCI-H460 lung it was 12 µM and 11.8 µM; in the assay on SF-295 CNS it was 1.1 µM. Besides, the TGI with MDA-MB-231 breast was 0.039 µM; in the assay with MALME-3M melanoma, 31.6 µM and 28.3 µM; in the assay on CCRF-CEM leukemia, 22.4 µM and 21.6 µM; with U251 CNS, 13.4 µM and 13.7 µM. Further, the GI50 in the assay on OVCAR-8 ovarian is 0.0266 µM and < 0.01 µM; in the assay on HCT-116 colon, less than 0.01 µM; in the assay on TK-10 renal it was 3.19 µM and 2.33 µM; with NCI-H460 lung it was less than 0.01 µM; with SF-295 CNS, 0.0191 µM and < 0.01 µM; in the assay on MDA-MB-231 breast it was less than 0.01 µM. The GI50 was 13.3 µM and 10.5 µM in the assay with MALME-3M melanoma; 0.0115 µM and < 0.01 µM in the assay with CCRF-CEM leukemia; less than 0.01 µM in the assay with U251 CNS.
